Test results reported in PubChem BioAssay (NCI).
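Protocol summary: plate cells (96-well), add compound at 5 concentrations, incubate 48 h, interpolate endpoints linearly. GI50 is the concentration that inhibits growth by half. TGI: concentration producing complete growth inhibition.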

Tests used:
Assay in all cases: inhibition of tumour cell growth, NCI panel, 48 h
HCT-15 colon = tested on: HCT-15 colon
OVCAR-8 ovarian = tested on: OVCAR-8 ovarian
OVCAR-5 ovarian = tested on: OVCAR-5 ovarian
KM12 colon = tested on: KM12 colon
MOLT-4 leukemia = tested on: MOLT-4 leukemia
RXF 393 renal = tested on: RXF 393 renal
786-0 renal = tested on: 786-0 renal
MALME-3M melanoma = tested on: MALME-3M melanoma
TK-10 renal = tested on: TK-10 renal
COLO 205 colon = tested on: COLO 205 colon
K-562 leukemia = tested on: K-562 leukemia
UACC-62 melanoma = tested on: UACC-62 melanoma
NCI-H23 lung = tested on: NCI-H23 lung
DMS 114 small cell lung = tested on: DMS 114 small cell lung
SK-MEL-28 melanoma = tested on: SK-MEL-28 melanoma
CCRF-CEM leukemia = tested on: CCRF-CEM leukemia
SK-MEL-2 melanoma = tested on: SK-MEL-2 melanoma
RPMI-8226 leukemia = tested on: RPMI-8226 leukemia
DMS 273 small cell lung = tested on: DMS 273 small cell lung
M14 melanoma = tested on: M14 melanoma
SNB-75 CNS = tested on: SNB-75 CNS
UACC-257 melanoma = tested on: UACC-257 melanoma
SK-OV-3 ovarian = tested on: SK-OV-3 ovarian
NCI-H522 lung = tested on: NCI-H522 lung
SF-268 CNS = tested on: SF-268 CNS
SW-620 colon = tested on: SW-620 colon
LOX IMVI melanoma = tested on: LOX IMVI melanoma
A498 renal = tested on: A498 renal
SF-539 CNS = tested on: SF-539 CNS
IGROV1 ovarian = tested on: IGROV1 ovarian
KM20L2 colon = tested on: KM20L2 colon
HT29 colon = tested on: HT29 colon
HCT-116 colon = tested on: HCT-116 colon
SNB-19 CNS = tested on: SNB-19 CNS
CAKI-1 renal = tested on: CAKI-1 renal
LXFL 529 NSCLC = tested on: LXFL 529 NSCLC
EKVX NSCLC = tested on: EKVX NSCLC
OVCAR-4 ovarian = tested on: OVCAR-4 ovarian
UO-31 renal = tested on: UO-31 renal
SK-MEL-5 melanoma = tested on: SK-MEL-5 melanoma
ACHN renal = tested on: ACHN renal
HOP-18 NSCLC = tested on: HOP-18 NSCLC
M19-MEL melanoma = tested on: M19-MEL melanoma
A549 NSCLC = tested on: A549 NSCLC
SN12C renal = tested on: SN12C renal
XF 498 CNS = tested on: XF 498 CNS
DLD-1 colon = tested on: DLD-1 colon
NCI-H460 lung = tested on: NCI-H460 lung
SNB-78 CNS = tested on: SNB-78 CNS
OVCAR-3 ovarian = tested on: OVCAR-3 ovarian
U251 CNS = tested on: U251 CNS
SF-295 CNS = tested on: SF-295 CNS
HL-60(TB) leukemia = tested on: HL-60(TB) leukemia
NCI-H226 lung = tested on: NCI-H226 lung
SR leukemia = tested on: SR leukemia
HCC-2998 colon = tested on: HCC-2998 colon
HOP-62 NSCLC = tested on: HOP-62 NSCLC
HOP-92 NSCLC = tested on: HOP-92 NSCLC

COc1ccc(-c2cc(C(=O)Nc3ccc(C)c(C)c3)nc(NC#N)n2)cc1
TGI (HCT-15 colon): > 100 µM
TGI (OVCAR-8 ovarian): > 100 µM
TGI (OVCAR-5 ovarian): > 100 µM
TGI (KM12 colon): > 100 µM
TGI (MOLT-4 leukemia): > 100 µM
TGI (RXF 393 renal): > 100 µM
TGI (786-0 renal): > 100 µM
TGI (MALME-3M melanoma): > 100 µM
TGI (TK-10 renal): > 100 µM
TGI (COLO 205 colon): > 100 µM
TGI (K-562 leukemia): > 100 µM
TGI (UACC-62 melanoma): > 100 µM
TGI (NCI-H23 lung): > 100 µM
TGI (DMS 114 small cell lung): > 100 µM
TGI (SK-MEL-28 melanoma): > 100 µM
TGI (CCRF-CEM leukemia): > 100 µM
TGI (SK-MEL-2 melanoma): > 100 µM
TGI (RPMI-8226 leukemia): > 100 µM
TGI (DMS 273 small cell lung): > 100 µM
TGI (M14 melanoma): > 100 µM
TGI (SNB-75 CNS): > 100 µM
TGI (UACC-257 melanoma): > 100 µM
TGI (SK-OV-3 ovarian): > 100 µM
TGI (NCI-H522 lung): > 100 µM
TGI (SF-268 CNS): > 100 µM
TGI (SW-620 colon): > 100 µM
TGI (LOX IMVI melanoma): > 100 µM
TGI (A498 renal): > 100 µM
TGI (SF-539 CNS): > 100 µM
TGI (IGROV1 ovarian): > 100 µM
TGI (KM20L2 colon): > 100 µM
TGI (HT29 colon): > 100 µM
TGI (HCT-116 colon): > 100 µM
TGI (SNB-19 CNS): > 100 µM
TGI (CAKI-1 renal): > 100 µM
TGI (LXFL 529 NSCLC): > 100 µM
TGI (EKVX NSCLC): > 100 µM
TGI (OVCAR-4 ovarian): > 100 µM
TGI (UO-31 renal): > 100 µM
TGI (SK-MEL-5 melanoma): > 100 µM
TGI (ACHN renal): > 100 µM
TGI (HOP-18 NSCLC): > 100 µM
TGI (M19-MEL melanoma): > 100 µM
TGI (A549 NSCLC): > 100 µM
TGI (SN12C renal): > 100 µM
TGI (XF 498 CNS): > 100 µM
TGI (DLD-1 colon): > 100 µM
TGI (NCI-H460 lung): > 100 µM
TGI (SNB-78 CNS): > 100 µM
TGI (OVCAR-3 ovarian): > 100 µM
TGI (U251 CNS): > 100 µM

C[CH2][Sn]([CH2]C)([O]C(=O)c1ccccc1OC)[O][Sn]([CH2]C)([CH2]C)[O]C(=O)c1ccccc1OC
GI50 (HCT-15 colon): > 100 µM
TGI (HCT-15 colon): > 100 µM
GI50 (OVCAR-8 ovarian): > 100 µM
TGI (OVCAR-8 ovarian): > 100 µM
GI50 (SF-295 CNS): > 100 µM
TGI (SF-295 CNS): > 100 µM
GI50 (HL-60(TB) leukemia): > 100 µM
TGI (HL-60(TB) leukemia): > 100 µM
GI50 (OVCAR-5 ovarian): > 100 µM
TGI (OVCAR-5 ovarian): > 100 µM
GI50 (KM12 colon): > 100 µM
TGI (KM12 colon): > 100 µM
GI50 (NCI-H226 lung): > 100 µM
TGI (NCI-H226 lung): > 100 µM
GI50 (MOLT-4 leukemia): > 100 µM
TGI (MOLT-4 leukemia): > 100 µM
GI50 (RXF 393 renal): 43.3 µM
TGI (RXF 393 renal): > 100 µM
GI50 (786-0 renal): > 100 µM
TGI (786-0 renal): > 100 µM
GI50 (SR leukemia): > 100 µM
TGI (SR leukemia): > 100 µM
GI50 (MALME-3M melanoma): 27.6 µM
TGI (MALME-3M melanoma): > 100 µM
GI50 (TK-10 renal): > 100 µM
TGI (TK-10 renal): > 100 µM
GI50 (COLO 205 colon): > 100 µM
TGI (COLO 205 colon): > 100 µM
GI50 (K-562 leukemia): 47 µM
TGI (K-562 leukemia): > 100 µM
GI50 (UACC-62 melanoma): > 100 µM
TGI (UACC-62 melanoma): > 100 µM
GI50 (NCI-H23 lung): > 100 µM
TGI (NCI-H23 lung): > 100 µM
GI50 (DMS 114 small cell lung): 30 µM
TGI (DMS 114 small cell lung): > 100 µM
GI50 (SK-MEL-28 melanoma): > 100 µM
TGI (SK-MEL-28 melanoma): > 100 µM
GI50 (CCRF-CEM leukemia): 41.2 µM
TGI (CCRF-CEM leukemia): > 100 µM
GI50 (SK-MEL-2 melanoma): 91.5 µM
TGI (SK-MEL-2 melanoma): > 100 µM
GI50 (HCC-2998 colon): > 100 µM
TGI (HCC-2998 colon): > 100 µM
GI50 (DMS 273 small cell lung): > 100 µM
TGI (DMS 273 small cell lung): > 100 µM
GI50 (M14 melanoma): > 100 µM
TGI (M14 melanoma): > 100 µM
GI50 (SNB-75 CNS): > 100 µM
TGI (SNB-75 CNS): > 100 µM
GI50 (UACC-257 melanoma): > 100 µM
TGI (UACC-257 melanoma): > 100 µM
GI50 (SK-OV-3 ovarian): > 100 µM
TGI (SK-OV-3 ovarian): > 100 µM
GI50 (NCI-H522 lung): 3.02 µM
TGI (NCI-H522 lung): 14.7 µM
GI50 (SF-268 CNS): > 100 µM
TGI (SF-268 CNS): > 100 µM
GI50 (SW-620 colon): 44.8 µM
TGI (SW-620 colon): > 100 µM
GI50 (HOP-62 NSCLC): > 100 µM
TGI (HOP-62 NSCLC): > 100 µM
GI50 (LOX IMVI melanoma): 73 µM
TGI (LOX IMVI melanoma): > 100 µM
GI50 (A498 renal): 44.4 µM
TGI (A498 renal): > 100 µM
GI50 (SF-539 CNS): > 100 µM
TGI (SF-539 CNS): > 100 µM
GI50 (IGROV1 ovarian): > 100 µM
TGI (IGROV1 ovarian): > 100 µM
GI50 (KM20L2 colon): > 100 µM
TGI (KM20L2 colon): > 100 µM
GI50 (HT29 colon): > 100 µM
TGI (HT29 colon): > 100 µM
GI50 (HCT-116 colon): > 100 µM
TGI (HCT-116 colon): > 100 µM
GI50 (SNB-19 CNS): > 100 µM
TGI (SNB-19 CNS): > 100 µM
GI50 (CAKI-1 renal): 34.6 µM
TGI (CAKI-1 renal): > 100 µM
GI50 (LXFL 529 NSCLC): 15.1 µM
TGI (LXFL 529 NSCLC): 28.5 µM
GI50 (EKVX NSCLC): > 100 µM
TGI (EKVX NSCLC): > 100 µM
GI50 (OVCAR-4 ovarian): > 100 µM
TGI (OVCAR-4 ovarian): > 100 µM
GI50 (UO-31 renal): > 100 µM
TGI (UO-31 renal): > 100 µM
GI50 (SK-MEL-5 melanoma): > 100 µM
TGI (SK-MEL-5 melanoma): > 100 µM
GI50 (ACHN renal): > 100 µM
TGI (ACHN renal): > 100 µM
GI50 (HOP-18 NSCLC): > 100 µM
TGI (HOP-18 NSCLC): > 100 µM
GI50 (M19-MEL melanoma): > 100 µM
TGI (M19-MEL melanoma): > 100 µM
GI50 (A549 NSCLC): > 100 µM
TGI (A549 NSCLC): > 100 µM
GI50 (SN12C renal): > 100 µM
TGI (SN12C renal): > 100 µM
GI50 (HOP-92 NSCLC): 89.4 µM
TGI (HOP-92 NSCLC): > 100 µM
GI50 (XF 498 CNS): > 100 µM
TGI (XF 498 CNS): > 100 µM
GI50 (DLD-1 colon): 50.2 µM
TGI (DLD-1 colon): > 100 µM
GI50 (NCI-H460 lung): > 100 µM
TGI (NCI-H460 lung): > 100 µM
GI50 (SNB-78 CNS): 63.4 µM
TGI (SNB-78 CNS): > 100 µM
GI50 (OVCAR-3 ovarian): > 100 µM
TGI (OVCAR-3 ovarian): > 100 µM
GI50 (U251 CNS): > 100 µM
TGI (U251 CNS): > 100 µM
